Legend:
B-Raf V600E = B-Raf V600E (Homo sapiens (Human), UniProt P15056, V600E); test: B-Raf V600E kinase biochemical activity assay (AlphaScreen, biotin-MEK1 substrate); details: 100 μM ATP
Procedure, shortened: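 B-Raf V600E (0.1 ng) phosphorylated 100 nM biotin-MEK1 with 100 μM ATP (final) in HEPES pH 7.0 with Mg2+/Mn2+ for 45 min at room temperature. Compounds were tested over an 8-point serial dilution. Phospho-MEK1/2 was detected by AlphaScreen after 3 h with beads, and IC50 came from signal versus concentration.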

[1] = tested on: IPC-298 human melanoma cell line that expresses activated NRAS; test: IPC-298_P-ERK cell activation assay (phosphorylated ERK, AlphaScreen); format: cell-based; details: 1 h, IPC-298 cells, P-ERK activation, compound for one hour
Method: B9 is a squamous cell carcinoma cell line expressing activated HRAS that was isolated from a DMBA/TPA-induced mouse model of skin carcinogenesis (Stoler, et al. The Journal of Cell Biology, 1993, 122(5), 1103-17). IPC-298 is a human melanoma cell line that expresses activated NRAS (Aubert, et al. International Journal of Cancer, 1993, 54(5), 784-92). To determine whether compounds induce phosphorylated ERK and MEK, cells are plated in a 96-well dish and treated with an 8-point titration of compound for one hour at 37° C. The media is then removed and the cells are incubated with lysis buffer containing protease and phosphatase inhibitors. Phosphorylated ERK and MEK in the resulting lysates is detected using AlphaScreen™ technology. To detect phosphorylated ERK, cell lysates are incubated with streptavidin-coated donor beads, anti-mouse IgG acceptor beads, a biotinylated anti-ERK1/2 rabbit antibody, and a mouse antibody that recognizes ERK1/2 only when it is phosphorylated on Thr202 and Tyr204. The biotinylated ERK1/2 antibody will bind to both the streptavidin-coated donor beads and to ERK1/2 (regardless of its phosphorylation state), and the phospho-ERK1/2 antibody will bind to the acceptor beads and to ERK1/2 that is phosphorylated at Thr202/Tyr204. Excitation of the beads with laser light at 680 nm produces singlet oxygen, which is rapidly quenched unless the beads are in close proximity. When ERK is phosphorylated, both antibodies can bind the same protein, bringing the donor and acceptor beads into close proximity, producing a signal that can be measured at 580 nm. MEK phosphorylation is detected using a similar approach, only with antibodies directed against total MEK1/2 and MEK1/2 that is phosphorylated at Ser217 and Ser221.

[2] = tested on: COLO205 colon adenocarcinoma cells (B-Raf V600E mutation); test: COLO205 cell growth inhibition (ATPlite); format: cell-based; details: Homo sapiens, COLO 205, 72 h, 3 days
Procedure, shortened: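 Cells treated for 3 days at 37 °C, 5% CO2 with an 8-point 1:3 dilution series, top final concentration 10 μM, DMSO control. ATPlite luminescence used as a measure of cell number; IC50 from reading versus concentration.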

B-Raf V600E, sequence (P15056 whole entry V600E): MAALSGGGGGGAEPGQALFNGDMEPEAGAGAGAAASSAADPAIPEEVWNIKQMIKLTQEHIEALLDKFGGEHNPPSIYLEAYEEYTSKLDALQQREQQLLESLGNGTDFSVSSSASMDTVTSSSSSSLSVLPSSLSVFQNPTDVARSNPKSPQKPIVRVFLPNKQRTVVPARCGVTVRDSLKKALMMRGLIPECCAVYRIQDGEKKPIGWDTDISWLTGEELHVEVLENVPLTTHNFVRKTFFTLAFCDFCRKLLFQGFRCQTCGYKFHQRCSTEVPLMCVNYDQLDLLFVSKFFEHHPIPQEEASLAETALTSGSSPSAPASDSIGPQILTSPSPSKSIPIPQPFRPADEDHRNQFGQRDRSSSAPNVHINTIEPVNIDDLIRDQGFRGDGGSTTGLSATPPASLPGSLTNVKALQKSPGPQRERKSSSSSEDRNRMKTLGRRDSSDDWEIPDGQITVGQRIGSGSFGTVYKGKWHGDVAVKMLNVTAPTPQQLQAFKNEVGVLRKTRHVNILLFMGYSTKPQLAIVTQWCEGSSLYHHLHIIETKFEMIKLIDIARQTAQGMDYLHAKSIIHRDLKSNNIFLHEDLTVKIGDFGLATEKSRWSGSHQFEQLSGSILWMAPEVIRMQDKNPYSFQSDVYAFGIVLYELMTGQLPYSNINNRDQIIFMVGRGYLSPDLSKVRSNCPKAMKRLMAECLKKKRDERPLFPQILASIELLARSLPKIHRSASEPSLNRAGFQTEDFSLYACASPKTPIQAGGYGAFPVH

SMILES | IC50 (B-Raf V600E) [µM] | EC50 [1] [µM] | IC50 [2] [µM]
O=C(c1cccc(NS(=O)(=O)N2CCCC2)c1F)c1c[nH]c2ncc(-c3cccnc3)cc12 [Compound P-0043, N-[2-fluoro-3-[5-(3-pyridyl)-1H-pyrrolo[2,3-b]pyridine-3-carbonyl]phenyl]pyrrolidine-1-sulfonamide] | < 0.1 | > 10 | < 1
Cc1ccc(-c2cnc3[nH]cc(C(=O)c4cccc(NS(=O)(=O)N5CCCC5)c4F)c3c2)cn1 [Compound P-0045, N-[2-fluoro-3-[5-(6-methyl-3-pyridyl)-1H-pyrrolo[2,3-b]pyridine-3-carbonyl]phenyl]pyrrolidine-1-sulfonamide] | < 0.1 | > 10 | < 1
CC(C)c1ncc(-c2cnc3[nH]cc(C(=O)c4cccc(NS(=O)(=O)N5CCCC5)c4F)c3c2)cn1 [Compound P-0047, N-[2-fluoro-3-[5-(2-isopropylpyrimidin-5-yl)-1H-pyrrolo[2,3-b]pyridine-3-carbonyl]phenyl]pyrrolidine-1-sulfonamide] | < 0.1 | > 10 | < 1
O=C(c1cccc(NS(=O)(=O)N2CCCC2)c1F)c1c[nH]c2ncc(-c3cnc(C4CC4)nc3)cc12 [Compound P-0048, N-[3-[5-(2-cyclopropylpyrimidin-5-yl)-1H-pyrrolo[2,3-b]pyridine-3-carbonyl]-2-fluoro-phenyl]pyrrolidine-1-sulfonamide] | < 0.1 | > 10 | < 1
COc1cc(-c2cnc3[nH]cc(C(=O)c4cccc(NS(=O)(=O)N5CCCC5)c4F)c3c2)ccc1C#N [Compound P-0049, N-[3-[5-(4-cyano-3-methoxy-phenyl)-1H-pyrrolo[2,3-b]pyridine-3-carbonyl]-2-fluoro-phenyl]pyrrolidine-1-sulfonamide] | < 0.1 | > 4 | < 1
N#CC1(c2ccc(-c3cnc4[nH]cc(C(=O)c5cccc(NS(=O)(=O)N6CCCC6)c5F)c4c3)cc2)CC1 [Compound P-0050, N-[3-[5-[4-(1-cyanocyclopropyl)phenyl]-1H-pyrrolo[2,3-b]pyridine-3-carbonyl]-2-fluoro-phenyl]pyrrolidine-1-sulfonamide] | < 0.1 | > 10 | < 1
CC(C)c1ncc(-c2cnc3[nH]cc(C(=O)c4cccc(NS(=O)(=O)N(C)C)c4F)c3c2)cn1 [Compound P-0051, 3-[3-(dimethylsulfamoylamino)-2-fluoro-benzoyl]-5-(2-isopropylpyrimidin-5-yl)-1H-pyrrolo[2,3-b]pyridine] | < 0.1 | > 10 | < 1
CN(C)S(=O)(=O)Nc1cccc(C(=O)c2c[nH]c3ncc(-c4cnc(C5CC5)nc4)cc23)c1F [Compound P-0052, 5-(2-cyclopropylpyrimidin-5-yl)-3-[3-(dimethylsulfamoylamino)-2-fluoro-benzoyl]-1H-pyrrolo[2,3-b]pyridine] | < 0.1 | > 10 | < 1
CN(C)S(=O)(=O)Nc1cccc(C(=O)c2c[nH]c3ncc(-c4ccc(C(F)(F)F)nc4)cc23)c1F [Compound P-0053, 3-[3-(dimethylsulfamoylamino)-2-fluoro-benzoyl]-5-[6-(trifluoromethyl)-3-pyridyl]-1H-pyrrolo[2,3-b]pyridine] | < 0.1 | > 10 | < 1
COc1cc(-c2cnc3[nH]cc(C(=O)c4cccc(NS(=O)(=O)N(C)C)c4F)c3c2)ccc1C#N [Compound P-0054, 5-(4-cyano-3-methoxy-phenyl)-3-[3-(dimethylsulfamoylamino)-2-fluoro-benzoyl]-1H-pyrrolo[2,3-b]pyridine] | < 0.1 | > 1 | > 1
CN(C)S(=O)(=O)Nc1cccc(C(=O)c2c[nH]c3ncc(-c4ccc(C5(C#N)CC5)cc4)cc23)c1F [Compound P-0055, 5-[4-(1-cyanocyclopropyl)phenyl]-3-[3-(dimethylsulfamoylamino)-2-fluoro-benzoyl]-1H-pyrrolo[2,3-b]pyridine] | < 0.1 | > 10 | < 1
CCN(C)S(=O)(=O)Nc1cccc(C(=O)c2c[nH]c3ncc(-c4cnc(C)nc4)cc23)c1F [Compound P-0056, 3-[3-[[ethyl(methyl)sulfamoyl]amino]-2-fluoro-benzoyl]-5-(2-methylpyrimidin-5-yl)-1H-pyrrolo[2,3-b]pyridine] | < 0.1 | > 10 | < 1
CCN(C)S(=O)(=O)Nc1cccc(C(=O)c2c[nH]c3ncc(-c4cnc(C(C)C)nc4)cc23)c1F [Compound P-0057, 3-[3-[[ethyl(methyl)sulfamoyl]amino]-2-fluoro-benzoyl]-5-(2-isopropylpyrimidin-5-yl)-1H-pyrrolo[2,3-b]pyridine] | < 0.1 | > 10 | < 1
CCN(C)S(=O)(=O)Nc1cccc(C(=O)c2c[nH]c3ncc(-c4cnc(C5CC5)nc4)cc23)c1F [Compound P-0058, 5-(2-cyclopropylpyrimidin-5-yl)-3-[3-[[ethyl(methyl)sulfamoyl]amino]-2-fluoro-benzoyl]-1H-pyrrolo[2,3-b]pyridine] | < 0.1 | > 10 | < 1
CCN(C)S(=O)(=O)Nc1cccc(C(=O)c2c[nH]c3ncc(-c4ccc(C(F)(F)F)nc4)cc23)c1F [Compound P-0059, 3-[3-[[ethyl(methyl)sulfamoyl]amino]-2-fluoro-benzoyl]-5-[6-(trifluoromethyl)-3-pyridyl]-1H-pyrrolo[2,3-b]pyridine] | < 0.1 | > 10 | < 1
CCN(C)S(=O)(=O)Nc1cccc(C(=O)c2c[nH]c3ncc(-c4ccc(C#N)c(OC)c4)cc23)c1F [Compound P-0060, 5-(4-cyano-3-methoxy-phenyl)-3-[3-[[ethyl(methyl)sulfamoyl]amino]-2-fluoro-benzoyl]-1H-pyrrolo[2,3-b]pyridine] | < 0.1 | > 2 | < 1
O=C(c1cccc(NS(=O)(=O)N2CCCC2)c1F)c1c[nH]c2ncc(-c3ccc(F)cc3)cc12 [Compound P-0062, N-[2-fluoro-3-[5-(4-fluorophenyl)-1H-pyrrolo[2,3-b]pyridine-3-carbonyl]phenyl]pyrrolidine-1-sulfonamide] | < 0.1 | > 10 | < 1
O=C(c1cccc(NS(=O)(=O)N2CCCC2)c1F)c1c[nH]c2ncc(-c3ccccc3)cc12 [Compound P-0063, N-[2-fluoro-3-(5-phenyl-1H-pyrrolo[2,3-b]pyridine-3-carbonyl)phenyl]pyrrolidine-1-sulfonamide] | < 0.1 | > 10 | < 1
CN(C)S(=O)(=O)Nc1cccc(C(=O)c2c[nH]c3ncc(-c4cnc(NC5CC5)nc4)cc23)c1F [Compound P-0064, 5-[2-(cyclopropylamino)pyrimidin-5-yl]-3-[3-(dimethylsulfamoylamino)-2-fluoro-benzoyl]-1H-pyrrolo[2,3-b]pyridine] | < 0.1 | > 10 | < 1
CC(C)(O)c1nc(-c2cnc3[nH]cc(C(=O)c4c(F)ccc(NS(=O)(=O)N5CCCC5)c4F)c3c2)cs1 [Compound P-0265, N-[2,4-difluoro-3-[5-[2-(1-hydroxy-1-methyl-ethyl)thiazol-4-yl]-1H-pyrrolo[2,3-b]pyridine-3-carbonyl]phenyl]pyrrolidine-1-sulfonamide] | < 0.1 | > 2 | < 1
O=C(c1c(F)ccc(NS(=O)(=O)N2CCCC2)c1F)c1c[nH]c2ncc(-c3ccnc(C4CC4)c3)cc12 [Compound P-0295, N-[3-[5-(2-cyclopropyl-4-pyridyl)-1H-pyrrolo[2,3-b]pyridine-3-carbonyl]-2,4-difluoro-phenyl]pyrrolidine-1-sulfonamide] | < 0.1 | > 2 | < 1
CNS(=O)(=O)Nc1ccc(F)c(C(=O)c2c[nH]c3ncc(-c4cnc(C5CC5)nc4)cc23)c1F [Compound P-0334, [5-(2-cyclopropylpyrimidin-5-yl)-1H-pyrrolo[2,3-b]pyridin-3-yl]-[2,6-difluoro-3-(methylsulfamoylamino)phenyl]methanone] | < 0.1 | > 2 | > 1

From US20230277534A1 (Plexxikon Inc., priority 2011, published 2023)
